The values that follow come from paper PMC3145970, “Specific CLK Inhibitors from a Novel Chemotype for Regulation of Alternative Splicing” (Chemistry & Biology, 2011).

Where two headings read alike, the source gives them in different places.

What all share (experiment): Thermal stability shift assay
Assay type in all cases: binding

In assay [1] the target is SLK (Homo sapiens, UniProt Q9H2G2). Conditions: read-out: Tm shift SLK. The protocol:
(§1) Thermal denaturation experiments were carried out in an Mx3005p real-time PCR machine (Agilent) using a protein concentration of 2 μM and an inhibitor concentration of 10 μM. Samples were buffered in 10 mM HEPES (pH 7.5), 500 mM NaCl and a 1:1000 dilution of SyproOrange (Invitrogen). The assay and data evaluation were carried out as described ([Bullock et al., 2005])

Assay [2] has as its target T1, FES (Homo sapiens, UniProt P07332).
T1 construct: purchased in-house (SGC Oxford thermal shift panel)
Conditions: read-out: Tm shift FES. The procedure: as §1

Assay [3] deals with T2, MST4 (Homo sapiens, UniProt Q9P289).
T2 construct: purchased in-house (SGC Oxford thermal shift panel)
As to conditions: read-out: Tm shift MST4. The protocol:
as §1

Assay [4] addresses T3, PKG1 (Homo sapiens, UniProt Q13976).
T3 sequence (Q13976 1-671): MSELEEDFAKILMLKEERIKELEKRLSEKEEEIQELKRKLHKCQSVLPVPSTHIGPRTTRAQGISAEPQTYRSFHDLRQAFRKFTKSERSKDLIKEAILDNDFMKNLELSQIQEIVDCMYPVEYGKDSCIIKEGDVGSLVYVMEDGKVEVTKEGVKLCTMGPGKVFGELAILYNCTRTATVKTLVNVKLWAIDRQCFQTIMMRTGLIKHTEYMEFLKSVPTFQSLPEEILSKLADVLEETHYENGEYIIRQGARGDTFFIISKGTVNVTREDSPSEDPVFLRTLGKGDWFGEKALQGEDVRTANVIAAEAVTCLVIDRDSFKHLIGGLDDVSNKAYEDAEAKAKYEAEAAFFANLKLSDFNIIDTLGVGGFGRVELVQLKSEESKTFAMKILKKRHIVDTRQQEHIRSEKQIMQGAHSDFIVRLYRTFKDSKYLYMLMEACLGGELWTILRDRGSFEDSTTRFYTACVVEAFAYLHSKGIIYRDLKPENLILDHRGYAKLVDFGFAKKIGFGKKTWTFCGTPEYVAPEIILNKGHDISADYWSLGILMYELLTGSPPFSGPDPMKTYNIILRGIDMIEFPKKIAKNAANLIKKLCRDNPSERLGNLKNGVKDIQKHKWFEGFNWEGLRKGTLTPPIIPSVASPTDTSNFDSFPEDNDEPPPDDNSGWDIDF
Conditions: read-out: Tm shift PKG1. The protocol: as §1

Assay [5] addresses T4, PLK4 (Homo sapiens, UniProt O00444).
T4 sequence (O00444 1-970): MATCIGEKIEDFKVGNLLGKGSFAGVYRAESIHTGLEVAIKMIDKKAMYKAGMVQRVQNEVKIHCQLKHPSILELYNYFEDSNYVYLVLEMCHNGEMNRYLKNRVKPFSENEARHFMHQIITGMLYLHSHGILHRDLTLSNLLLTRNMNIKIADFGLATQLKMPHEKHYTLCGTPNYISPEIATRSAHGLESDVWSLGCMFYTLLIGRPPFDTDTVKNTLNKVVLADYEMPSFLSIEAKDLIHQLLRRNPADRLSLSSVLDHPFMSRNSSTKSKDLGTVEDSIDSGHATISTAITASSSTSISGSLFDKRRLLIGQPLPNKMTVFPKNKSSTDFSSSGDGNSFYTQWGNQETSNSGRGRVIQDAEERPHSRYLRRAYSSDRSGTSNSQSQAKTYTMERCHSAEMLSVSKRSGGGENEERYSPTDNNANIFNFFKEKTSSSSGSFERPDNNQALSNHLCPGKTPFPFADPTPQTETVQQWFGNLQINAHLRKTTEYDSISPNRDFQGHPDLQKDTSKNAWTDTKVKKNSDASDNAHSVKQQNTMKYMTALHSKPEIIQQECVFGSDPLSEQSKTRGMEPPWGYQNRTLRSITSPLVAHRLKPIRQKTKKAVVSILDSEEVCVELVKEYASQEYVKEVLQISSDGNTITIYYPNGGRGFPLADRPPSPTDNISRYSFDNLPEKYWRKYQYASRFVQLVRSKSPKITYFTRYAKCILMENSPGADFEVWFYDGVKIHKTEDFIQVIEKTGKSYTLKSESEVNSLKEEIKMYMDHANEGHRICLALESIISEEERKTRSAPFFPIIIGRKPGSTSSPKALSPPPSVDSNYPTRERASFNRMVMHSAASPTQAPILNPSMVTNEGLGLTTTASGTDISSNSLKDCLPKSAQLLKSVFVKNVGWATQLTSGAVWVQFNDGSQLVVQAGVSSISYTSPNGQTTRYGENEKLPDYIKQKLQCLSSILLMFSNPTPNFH
As to conditions: read-out: Tm shift PLK4. The protocol:
as §1

In assay [6] the target is CK2a1 (Homo sapiens, UniProt P68400). As to conditions: read-out: Tm shift CK2a1. The protocol:
as §1

Assay [7] addresses SRPK2 (Homo sapiens, UniProt P78362). Conditions: read-out: Tm shift SRPK2. The protocol:
as §1

The target in assay [8] is T5, FGR (Homo sapiens, UniProt P09769).
T5 construct: purchased in-house (SGC Oxford thermal shift panel)
Conditions: read-out: Tm shift FGR. The procedure: as §1

Assay [9] has as its target T6, RSK3~C (Homo sapiens, UniProt Q15349).
T6 construct: RSK3~C 4.5 8.9 0.7 0.4 0.5 0.1 0.4
Conditions: read-out: Tm shift RSK3~C. The protocol:
as §1

Assay [10] has as its target T7, MSSK1 (Homo sapiens, UniProt Q9UPE1).
T7 construct: purchased in-house (SGC Oxford thermal shift panel)
Conditions: read-out: Tm shift MSSK1. The protocol: as §1

The target of assay [11] is CDKL1 (Homo sapiens, UniProt Q00532). As to conditions: read-out: Tm shift CDKL1. The procedure: as §1
Assay [12] concerns the target T8, NDR2 (Homo sapiens, UniProt Q9Y2H1).
T8 construct: purchased in-house (SGC Oxford thermal shift panel)
As to conditions: read-out: Tm shift NDR2. The procedure:
as §1

The target in assay [13] is ZAK (Homo sapiens, UniProt Q9NYL2). Conditions: read-out: Tm shift ZAK. The procedure:
as §1

Assay [14] has as its target ZC2/TNIK (Homo sapiens, UniProt Q9UKE5). Conditions: read-out: Tm shift ZC2/TNIK. The protocol:
as §1

Assay [15] addresses T9, DAPK3 (Homo sapiens, UniProt O43293).
T9 construct: purchased in-house (SGC Oxford thermal shift panel)
As to conditions: read-out: Tm shift DAPK3. The procedure:
as §1

Assay [16] addresses ACTR2 (Homo sapiens, UniProt P27037). As to conditions: read-out: Tm shift ACTR2. The protocol:
as §1

Assay [17] concerns the target T10, MAP2K2 (Homo sapiens, UniProt P36507).
T10 construct: purchased in-house (SGC Oxford thermal shift panel)
Conditions: read-out: Tm shift MAP2K2. The protocol:
as §1

T10 sequence (P36507 whole entry): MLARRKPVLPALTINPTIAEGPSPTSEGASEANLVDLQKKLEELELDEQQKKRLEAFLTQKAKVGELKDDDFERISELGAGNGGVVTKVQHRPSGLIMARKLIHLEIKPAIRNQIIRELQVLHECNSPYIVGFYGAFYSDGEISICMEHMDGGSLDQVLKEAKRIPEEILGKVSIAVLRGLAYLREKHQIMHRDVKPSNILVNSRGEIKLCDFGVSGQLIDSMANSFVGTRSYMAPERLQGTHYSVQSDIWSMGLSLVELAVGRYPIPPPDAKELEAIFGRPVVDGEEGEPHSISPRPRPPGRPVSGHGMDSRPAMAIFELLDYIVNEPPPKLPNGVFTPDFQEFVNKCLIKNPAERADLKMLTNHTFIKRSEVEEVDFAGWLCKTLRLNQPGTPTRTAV
Chain of CK2a1 (P68400 whole entry): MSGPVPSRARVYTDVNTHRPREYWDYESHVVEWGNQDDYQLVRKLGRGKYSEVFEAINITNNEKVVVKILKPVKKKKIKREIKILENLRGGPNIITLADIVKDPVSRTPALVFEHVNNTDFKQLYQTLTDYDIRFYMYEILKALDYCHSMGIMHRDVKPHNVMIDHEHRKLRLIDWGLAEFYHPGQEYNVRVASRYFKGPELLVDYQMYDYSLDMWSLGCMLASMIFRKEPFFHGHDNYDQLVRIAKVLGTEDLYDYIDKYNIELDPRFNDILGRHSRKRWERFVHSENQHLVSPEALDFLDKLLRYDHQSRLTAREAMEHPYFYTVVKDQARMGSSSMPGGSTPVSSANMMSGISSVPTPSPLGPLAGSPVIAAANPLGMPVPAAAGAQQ
T2 sequence (Q9P289 whole entry): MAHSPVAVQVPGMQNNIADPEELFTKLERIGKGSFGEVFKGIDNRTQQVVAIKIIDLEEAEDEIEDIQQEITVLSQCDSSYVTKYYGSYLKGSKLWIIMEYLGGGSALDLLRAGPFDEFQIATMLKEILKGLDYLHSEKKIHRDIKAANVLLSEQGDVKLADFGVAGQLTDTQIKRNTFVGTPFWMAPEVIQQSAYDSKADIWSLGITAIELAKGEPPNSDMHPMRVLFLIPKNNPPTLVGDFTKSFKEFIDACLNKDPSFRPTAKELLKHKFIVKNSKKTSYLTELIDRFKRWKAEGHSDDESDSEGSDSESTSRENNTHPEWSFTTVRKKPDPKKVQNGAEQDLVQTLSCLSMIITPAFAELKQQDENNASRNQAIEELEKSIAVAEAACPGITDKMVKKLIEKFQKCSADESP
T6 sequence (Q15349 415-672 limits assumed): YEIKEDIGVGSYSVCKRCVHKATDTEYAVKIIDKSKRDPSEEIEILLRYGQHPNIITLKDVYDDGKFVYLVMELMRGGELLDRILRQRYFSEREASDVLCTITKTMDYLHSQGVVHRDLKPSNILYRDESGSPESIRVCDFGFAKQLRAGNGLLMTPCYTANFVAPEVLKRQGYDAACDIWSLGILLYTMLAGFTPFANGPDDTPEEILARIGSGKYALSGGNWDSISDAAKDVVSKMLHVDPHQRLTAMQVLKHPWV
T1 sequence (P07332 whole entry): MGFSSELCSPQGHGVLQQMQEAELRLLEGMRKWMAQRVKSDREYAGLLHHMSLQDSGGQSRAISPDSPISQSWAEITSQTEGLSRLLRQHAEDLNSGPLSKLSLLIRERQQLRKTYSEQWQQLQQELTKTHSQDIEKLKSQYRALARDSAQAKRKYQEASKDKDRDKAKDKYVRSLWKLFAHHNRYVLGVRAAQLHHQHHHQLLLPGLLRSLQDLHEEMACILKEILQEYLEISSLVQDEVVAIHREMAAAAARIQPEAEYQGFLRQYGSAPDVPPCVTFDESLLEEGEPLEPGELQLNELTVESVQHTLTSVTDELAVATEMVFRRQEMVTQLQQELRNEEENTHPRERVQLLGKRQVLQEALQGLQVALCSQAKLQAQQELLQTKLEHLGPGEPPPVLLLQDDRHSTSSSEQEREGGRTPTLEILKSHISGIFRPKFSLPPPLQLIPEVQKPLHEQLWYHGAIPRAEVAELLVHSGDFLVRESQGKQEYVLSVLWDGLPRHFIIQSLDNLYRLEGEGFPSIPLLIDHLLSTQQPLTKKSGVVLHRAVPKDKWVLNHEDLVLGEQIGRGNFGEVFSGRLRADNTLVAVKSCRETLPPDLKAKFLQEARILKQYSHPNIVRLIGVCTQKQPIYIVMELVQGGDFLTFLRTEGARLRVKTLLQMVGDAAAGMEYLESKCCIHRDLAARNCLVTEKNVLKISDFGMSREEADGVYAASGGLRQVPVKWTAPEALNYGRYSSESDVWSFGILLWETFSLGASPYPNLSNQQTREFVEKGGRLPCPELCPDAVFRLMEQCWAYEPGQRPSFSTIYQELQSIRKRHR
Chain of ACTR2 (P27037 20-513): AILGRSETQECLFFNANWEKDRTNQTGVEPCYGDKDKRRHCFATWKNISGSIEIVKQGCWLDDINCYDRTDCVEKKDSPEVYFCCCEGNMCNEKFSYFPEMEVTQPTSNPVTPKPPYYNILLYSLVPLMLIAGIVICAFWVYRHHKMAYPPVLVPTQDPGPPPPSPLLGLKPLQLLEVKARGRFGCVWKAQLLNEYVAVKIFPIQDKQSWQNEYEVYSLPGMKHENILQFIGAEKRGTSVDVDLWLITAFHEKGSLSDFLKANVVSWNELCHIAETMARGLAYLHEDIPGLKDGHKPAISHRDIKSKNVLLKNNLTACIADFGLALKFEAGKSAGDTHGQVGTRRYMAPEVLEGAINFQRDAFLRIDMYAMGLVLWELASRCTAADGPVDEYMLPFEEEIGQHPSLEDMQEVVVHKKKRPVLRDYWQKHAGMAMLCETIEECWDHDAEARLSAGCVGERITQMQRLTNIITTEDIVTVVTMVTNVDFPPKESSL
Chain of SRPK2 (P78362 whole entry): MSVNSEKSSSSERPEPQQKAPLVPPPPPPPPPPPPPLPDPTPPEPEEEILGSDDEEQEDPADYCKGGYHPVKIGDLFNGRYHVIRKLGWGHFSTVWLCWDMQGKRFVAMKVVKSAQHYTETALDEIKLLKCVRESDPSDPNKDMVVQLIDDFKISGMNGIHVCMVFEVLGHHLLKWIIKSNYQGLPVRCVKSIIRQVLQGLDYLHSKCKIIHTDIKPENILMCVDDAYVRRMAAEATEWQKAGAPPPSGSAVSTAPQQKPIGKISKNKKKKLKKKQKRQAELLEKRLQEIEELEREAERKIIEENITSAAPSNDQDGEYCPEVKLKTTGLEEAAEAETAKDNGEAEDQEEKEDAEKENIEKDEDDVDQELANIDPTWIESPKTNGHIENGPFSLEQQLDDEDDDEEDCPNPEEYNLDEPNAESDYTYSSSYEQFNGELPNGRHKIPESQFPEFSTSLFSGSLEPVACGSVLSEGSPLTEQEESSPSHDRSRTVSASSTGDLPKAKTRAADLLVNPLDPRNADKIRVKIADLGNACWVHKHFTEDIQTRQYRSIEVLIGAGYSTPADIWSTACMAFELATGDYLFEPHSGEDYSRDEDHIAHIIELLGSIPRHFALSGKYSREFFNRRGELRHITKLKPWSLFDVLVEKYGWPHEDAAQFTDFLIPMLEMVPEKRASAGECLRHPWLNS
Chain of ZAK (Q9NYL2 whole entry): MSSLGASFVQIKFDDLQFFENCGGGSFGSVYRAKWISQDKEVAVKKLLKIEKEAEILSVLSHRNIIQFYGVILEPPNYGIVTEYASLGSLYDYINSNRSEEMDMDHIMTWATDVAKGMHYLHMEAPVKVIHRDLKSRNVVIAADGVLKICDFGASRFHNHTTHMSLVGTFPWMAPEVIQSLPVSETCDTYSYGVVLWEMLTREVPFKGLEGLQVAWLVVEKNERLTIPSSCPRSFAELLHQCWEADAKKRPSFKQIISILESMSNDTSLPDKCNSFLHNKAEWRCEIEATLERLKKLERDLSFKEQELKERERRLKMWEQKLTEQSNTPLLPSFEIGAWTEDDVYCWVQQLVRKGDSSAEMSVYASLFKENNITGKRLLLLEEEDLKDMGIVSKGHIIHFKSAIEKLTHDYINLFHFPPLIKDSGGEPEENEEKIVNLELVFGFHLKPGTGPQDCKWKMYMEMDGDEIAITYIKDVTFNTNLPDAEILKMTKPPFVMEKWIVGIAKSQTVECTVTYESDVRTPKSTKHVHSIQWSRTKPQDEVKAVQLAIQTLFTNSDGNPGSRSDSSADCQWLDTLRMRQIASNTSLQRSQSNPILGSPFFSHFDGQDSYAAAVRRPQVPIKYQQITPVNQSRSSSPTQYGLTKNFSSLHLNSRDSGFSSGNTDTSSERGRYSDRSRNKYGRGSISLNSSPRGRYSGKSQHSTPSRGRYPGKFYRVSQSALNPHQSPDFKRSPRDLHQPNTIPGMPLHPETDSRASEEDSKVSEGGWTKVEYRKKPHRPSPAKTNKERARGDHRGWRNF
Chain of CDKL1 (Q00532 whole entry): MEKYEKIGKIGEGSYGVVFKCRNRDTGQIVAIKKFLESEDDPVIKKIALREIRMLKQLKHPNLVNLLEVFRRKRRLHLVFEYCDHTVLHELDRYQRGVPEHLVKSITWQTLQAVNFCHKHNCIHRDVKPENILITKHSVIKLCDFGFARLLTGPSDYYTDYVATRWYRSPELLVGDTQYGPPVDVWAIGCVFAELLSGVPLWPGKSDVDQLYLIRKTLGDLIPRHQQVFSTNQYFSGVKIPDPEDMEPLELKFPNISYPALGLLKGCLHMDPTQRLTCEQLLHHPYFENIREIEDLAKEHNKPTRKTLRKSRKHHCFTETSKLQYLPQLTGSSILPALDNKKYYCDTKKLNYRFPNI

As for `Cn1c2c(Cl)c(Cl)ccc2c2c(C#N)c[nH]c(=O)c21` [compound 3, 7,8-Dichloro-9-Methyl-1-Oxo-2,9-Dihydro-1H-Pyrido[3,4-b]Indole-4-Carbonitrile], the ΔTm at 10 µM in assay [1] (inhibitor 10 μM) is -0.6 °C; in assay [2] (inhibitor 10 μM) it was 0 °C; in [3] (inhibitor 10 μM), 0.4 °C; in assay [4] (inhibitor 10 μM) it was 0.6 °C; in assay [5] (inhibitor 10 μM) it was 0.5 °C; in assay [6] (inhibitor 10 μM) it was 1.3 °C. Moreover, the ΔTm at 10 µM in assay [7] (inhibitor 10 μM) is 0.2 °C; in assay [8] (inhibitor 10 μM), 0.1 °C; in assay [9] (inhibitor 10 μM) it was 0.5 °C; in [10] (inhibitor 10 μM) it was 0.3 °C; in assay [11] (inhibitor 10 μM) it was 0.2 °C; in assay [12] (inhibitor 10 μM) it was 0 °C. Besides, the ΔTm at 10 µM was -0.2 °C in assay [13] (inhibitor 10 μM); 0 °C in [14] (inhibitor 10 μM); 2 °C in [15] (inhibitor 10 μM); 0.8 °C in assay [16] (inhibitor 10 μM); 0.1 °C in [17] (inhibitor 10 μM).

On to `CCOC(=O)c1c(C(C#N)=CN)c2ccc(Cl)c(Cl)c2n1C` (mixture of isomers) [KH-CB20, (E/Z)-Ethyl 3-(2-Amino-1-Cyanovinyl)-6,7-Dichloro-1-Methyl-1H-Indole-2-Carboxylate], for which the ΔTm at 10 µM in assay [1] was 0.1 °C; in [2] it was -0.3 °C; in assay [3], 0.1 °C; in [4] it was 0.5 °C; in assay [5], 0.2 °C; in [6], 1.1 °C. Moreover, the ΔTm at 10 µM in assay [7] was 0.5 °C; in assay [8], 0.3 °C; in assay [9], 0.4 °C; in assay [10] it was 0.5 °C; in assay [11] it was 0.2 °C; in assay [12] it was -0.3 °C. Besides, the ΔTm at 10 µM in assay [13] was -0.1 °C; in assay [14], -0.1 °C; in assay [15], 2.2 °C; in assay [16] it was 0.4 °C; in assay [17], 0 °C.

For the molecule `NC1=NC(=O)/C(=C2\CCNC(=O)c3[nH]c(Br)cc32)N1` [Hymenialdisine, hymenialdisine, reference compound], the ΔTm at 10 µM in assay [1] (inhibitor 10 μM) was 2.1 °C; in assay [2] (inhibitor 10 μM), 0.7 °C; in [3] (inhibitor 10 μM) it was 4.6 °C; in assay [4] (inhibitor 10 μM) it was 1.4 °C; in assay [5] (inhibitor 10 μM), 3 °C; in [6] (inhibitor 10 μM), 0.8 °C. Besides, the ΔTm at 10 µM in [7] (inhibitor 10 μM) is -0.2 °C; in [8] (inhibitor 10 μM) it was 0.7 °C; in assay [9] (inhibitor 10 μM) it was 4.5 °C; in [10] (inhibitor 10 μM) it was 0.3 °C; in assay [11] (inhibitor 10 μM) it was 0.6 °C; in assay [12] (inhibitor 10 μM), 0.9 °C. For the same molecule, the ΔTm at 10 µM was 1.7 °C in [13] (inhibitor 10 μM); 3.4 °C in [14]; 7.6 °C in assay [15] (inhibitor 10 μM); 0.7 °C in assay [16] (inhibitor 10 μM); 2 °C in assay [17] (inhibitor 10 μM).

On to `CCOC(=O)c1c(/C(C#N)=C\N)c2ccc(Cl)c(Cl)c2n1C` [KH-CB19, (E)-Ethyl 3-(2-Amino-1-Cyanovinyl)-6,7-Dichloro-1-Methyl-1H-Indole-2-Carboxylate], for which the ΔTm at 10 µM in assay [1] was 0 °C; in [2], -0.3 °C; in assay [3], 2.4 °C; in assay [4], 0.8 °C; in [5], 0.7 °C; in assay [6], 1.3 °C. The ΔTm at 10 µM was 0.1 °C in [7]; -0.3 °C in assay [8]; 0.7 °C in assay [9]; 0.2 °C in assay [10]; 0 °C in [11]; -0.2 °C in assay [12]. The ΔTm at 10 µM in assay [13] was -0.3 °C; in assay [14] it was 0.2 °C; in [15], 2.2 °C; in [16], 0.2 °C; in [17] it was 0.1 °C.

Take `CCOC(=O)c1c(C(C#N)=CN(C)C)c2ccc(Cl)c(Cl)c2n1C` (mixture of isomers) [compound 2, (E/Z)-Ethyl 6,7-Dichloro-3-[1-Cyano-2-(Dimethylamino)Vinyl]-1-Methyl-1H-Indole-2-Carboxylate]: the ΔTm at 10 µM is -0.7 °C in assay [1] (inhibitor 10 μM); 0 °C in assay [2] (inhibitor 10 μM); -0.6 °C in assay [3] (inhibitor 10 μM); 0.3 °C in assay [4] (inhibitor 10 μM); 0.2 °C in [5] (inhibitor 10 μM); 1.4 °C in [6] (inhibitor 10 μM). Besides, the ΔTm at 10 µM was -0.1 °C in [7] (inhibitor 10 μM); -0.2 °C in assay [8] (inhibitor 10 μM); 0.1 °C in assay [9] (inhibitor 10 μM); 0.3 °C in assay [10] (inhibitor 10 μM); 0.6 °C in assay [11] (inhibitor 10 μM); -0.1 °C in assay [12] (inhibitor 10 μM). Also, the ΔTm at 10 µM in assay [13] (inhibitor 10 μM) is -0.4 °C; in [14] (inhibitor 10 μM) it was 0.1 °C; in assay [15] (inhibitor 10 μM), 0.3 °C; in assay [16] (inhibitor 10 μM) it was 0.6 °C; in assay [17] (inhibitor 10 μM) it was -0.4 °C.
